What all share (type): cell-based
For experiment [1], the system named is FKBP51. In words: Immunoblot analysis of dexamethasone induced FKBP51 levels in H4 human neuroglioma cell line. The following applies: 10 μM compound, dexamethasone containing media, 24 h, immunoblot (FIG. 1). Here is the method:
FIGS. 1A-1B show qPCR (FIG. 1A) and immunoblot analysis (FIG. 1B) of FKBP51 levels in cultures of H4 human neuroglioma cell line treated with methyl acetate vehicle (MeOAc) or ethanol vehicle (ETOH) or 10 μM 15-deoxy-12,14-prostaglandin J2 (J2) or 10 μM 9-nitro oleic acid (9N), or 10 μM 10-nitro oleic acid (ION) in control (dimethyl sulfoxide; DMSO) or dexamethasone (Dex) containing media for 6 h and 24 h. Cultures incubated with treatments for 6 h were used for RNA analysis whereas cultures incubated with treatments for 24 h were used for protein analysis. Bars represent mean±SEM; n=3 independent experiments.
In general terms: Immunoblotting shows a protein as a band on a membrane.

For experiment [2], the system named is FKBP51. In words: Immunoblot analysis of dexamethasone induced FKBP51 levels in HT-22 mouse hippocampal neuronal cell line. The following applies: 20 μM compound, 500 nM dexamethasone, immunoblot (FIG. 2).
The test system of experiment [3] is glucocorticoid receptor response element (GRE). In words: GRE reporter luciferase assay in dexamethasone treated HeLa cells. Particulars: dexamethasone treated HeLa cells transfected with empty vector or FKBP51 vector (FIG. 3).

The structures appear in SMILES notation.

Regarding `CCCCCCCC/C=C(\CCCCCCCC(=O)O)[N+](=O)[O-]` [9-nitro oleic acid, 9-nitro-9E-octadecenoic acid], the “dexamethasone induced FKBP51 protein levels” value in experiment [1] and in experiment [2] was “inhibit dexamethasone induced FKBP51 protein levels” in each case. Further, the “glucocorticoid receptor response (GRE reporter luciferase)” value (“glucocorticoid receptor response” below) in experiment [3] is “alter glucocorticoid receptor response”.

For `CCCCCCCC/C(=C\CCCCCCCC(=O)O)[N+](=O)[O-]` [10-nitro oleic acid, 10-nitro-9E-octadecenoic acid], the “dexamethasone induced FKBP51 protein levels” value in experiment [1] and in experiment [2] was “inhibit dexamethasone induced FKBP51 protein levels” each time. Further, the “glucocorticoid receptor response” value in experiment [3] is “alter glucocorticoid receptor response”.

With `CCCCC/C=C/C=C1/C(=O)C=C[C@@H]1C/C=C\CCCC(=O)O` [15-deoxy-12,14-prostaglandin J2, 15-deoxy-Δ12,14-prostaglandin J2], the “dexamethasone induced FKBP51 protein levels” value in experiment [1] and in experiment [2] was “inhibit dexamethasone induced FKBP51 protein levels” in each case. For the same molecule, the “glucocorticoid receptor response” value in experiment [3] is given as “alter glucocorticoid receptor response”.
